Results as given in ChEMBL document CHEMBL5223155, “Design, synthesis, and evaluation of pyrido.[3,4-b]pyrazin-2(1H)-one derivatives as potent FLT3 inhibitors” (Bioorg Med Chem, 2023).
One block for each molecule: values may come before it. Calls of active or inactive are those of the source. No cut-off for these calls is given here.

Experiments:
MV4-11 = assay: cells; conditions: Homo sapiens, MV4-11, 72 h
Description: Antiproliferative activity against human MV4-11 cells assessed as inhibition of cell growth incubated for 72 hrs by MTS assay

[1] = molecular target: Receptor-type tyrosine-protein kinase FLT3 (Homo sapiens) (UniProt P36888); assay: Inhibition of FLT3 in human MV4-11 cells assessed as reduction in FLT3 autophosphorylation at Tyr589/591 at 10 to 1000 nM by Western blotting analysis; type: cell-based; conditions: dose 10-1000 nM
BaF3 [2] = assay: cells; conditions: Mus musculus, BaF3, 72 h
Description: Antiproliferative activity against mouse BaF3 cells harboring FLT3-F691L mutant assessed as inhibition of cell growth incubated for 72 hrs by MTS assay

BaF3 [3] = assay: cells; conditions: Mus musculus, BaF3, 72 h; remark: listed apart in the source
Description: Antiproliferative activity against mouse BaF3 cells harboring FLT3-D835F mutant assessed as inhibition of cell growth incubated for 72 hrs by MTS assay

MOLM-13 = assay: Antiproliferative activity against human MOLM-13 cells assessed as inhibition of cell growth incubated for 72 hrs by MTS assay; type: functional, cell-based; conditions: MOLM-13, 72 h
[4] = molecular target: Receptor-type tyrosine-protein kinase FLT3 (Homo sapiens) (UniProt P36888); assay: Inhibition of FLT3 in human MV4-11 cells assessed as reduction in STAT5 phosphorylation at 100 nM by Western blotting analysis; type: cell-based
WI-38 = assay: Antiproliferative activity against human WI-38 cells assessed as inhibition of cell growth incubated for 72 hrs by MTS assay; type: functional, cell-based; conditions: WI-38, 72 h
Rec1 = assay: Antiproliferative activity against human REC1 cells assessed as inhibition of cell growth incubated for 72 hrs by MTS assay; type: functional, cell-based; conditions: Rec1, 72 h
KG-1 = assay: Antiproliferative activity against human KG-1 cells assessed as inhibition of cell growth incubated for 72 hrs by MTS assay; type: functional, cell-based; conditions: KG-1, 72 h
[5] = Antiproliferative activity against human PBMCs assessed as inhibition of cell growth incubated for 72 hrs by MTS assay; type: toxicity, cell-based, PBMC
[6] = molecular target: T1, Receptor-type tyrosine-protein kinase FLT3 (Homo sapiens, UniProt P36888)
T1 sequence (P36888 whole entry): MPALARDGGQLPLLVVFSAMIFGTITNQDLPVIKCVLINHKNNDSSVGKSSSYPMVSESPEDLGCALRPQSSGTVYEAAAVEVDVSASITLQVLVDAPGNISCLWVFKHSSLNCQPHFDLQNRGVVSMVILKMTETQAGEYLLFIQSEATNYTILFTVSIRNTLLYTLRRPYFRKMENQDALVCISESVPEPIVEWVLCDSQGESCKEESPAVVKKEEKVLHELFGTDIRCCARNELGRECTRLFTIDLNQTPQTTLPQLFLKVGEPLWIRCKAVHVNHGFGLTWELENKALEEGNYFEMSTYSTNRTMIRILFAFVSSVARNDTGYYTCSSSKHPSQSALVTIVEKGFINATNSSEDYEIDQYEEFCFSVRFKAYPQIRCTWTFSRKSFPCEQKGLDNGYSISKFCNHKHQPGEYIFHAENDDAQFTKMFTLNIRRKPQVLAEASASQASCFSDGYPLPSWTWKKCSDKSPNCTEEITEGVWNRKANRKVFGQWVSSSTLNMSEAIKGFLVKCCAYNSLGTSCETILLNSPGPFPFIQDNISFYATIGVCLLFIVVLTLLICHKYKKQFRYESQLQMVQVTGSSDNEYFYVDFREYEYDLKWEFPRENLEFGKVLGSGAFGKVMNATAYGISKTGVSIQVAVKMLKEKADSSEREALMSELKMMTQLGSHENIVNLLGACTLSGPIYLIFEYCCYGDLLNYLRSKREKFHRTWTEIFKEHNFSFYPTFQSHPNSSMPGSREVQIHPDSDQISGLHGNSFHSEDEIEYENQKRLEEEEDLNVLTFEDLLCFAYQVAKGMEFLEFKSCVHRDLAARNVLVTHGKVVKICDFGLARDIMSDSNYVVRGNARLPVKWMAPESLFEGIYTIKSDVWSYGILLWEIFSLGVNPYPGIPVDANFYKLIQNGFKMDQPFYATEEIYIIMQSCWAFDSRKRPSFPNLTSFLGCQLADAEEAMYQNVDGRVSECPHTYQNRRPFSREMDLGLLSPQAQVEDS
Description: Inhibition of human wild type FLT3 using TK peptide as substrate incubated for 1 hr in presence of ATP by HTRF assay

BaF3 [7] = assay: cells; conditions: Mus musculus, BaF3, 72 h; remark: listed apart in the source
Description: Antiproliferative activity against mouse BaF3 cells harboring FLT3-ITD/D835Y mutant assessed as inhibition of cell growth incubated for 72 hrs by MTS assay

[8] = molecular target: Receptor-type tyrosine-protein kinase FLT3 (Homo sapiens) (UniProt P36888); assay: Inhibition of FLT3 in human MV4-11 cells assessed as reduction in ERK phosphorylation at 100 nM by Western blotting analysis; type: cell-based
[9] = Metabolic stability in ICR/CD mouse liver microsomes assessed as compound remaining at 100 uM preincubated with NADPH for 5 mins followed by compound addition and measured upto 90 mins by LC-MS/MS method; type: ADME, Microsome; conditions: time < 95 min, read-out: Stability
BaF3 [10] = assay: cells; conditions: Mus musculus, BaF3, 72 h; remark: listed apart in the source
Description: Antiproliferative activity against mouse BaF3 cells harboring FLT3-ITD mutant assessed as inhibition of cell growth incubated for 72 hrs by MTS assay

BaF3 [11] = assay: cells; conditions: Mus musculus, BaF3, 72 h; remark: listed apart in the source
Description: Antiproliferative activity against mouse BaF3 cells harboring FLT3-D835V mutant assessed as inhibition of cell growth incubated for 72 hrs by MTS assay

MM1.S = assay: Antiproliferative activity against human MM1.S cells assessed as inhibition of cell growth incubated for 72 hrs by MTS assay; type: functional, cell-based
HCC1954 = assay: Antiproliferative activity against human HCC1954 cells assessed as inhibition of cell growth incubated for 72 hrs by MTS assay; type: functional, cell-based; conditions: HCC1954, 72 h
OCI-AML-3 = assay: Antiproliferative activity against human OCI-AML-3 cells assessed as inhibition of cell growth incubated for 72 hrs by MTS assay; type: functional, cell-based; conditions: OCI-AML-3, 72 h
Z-138 = assay: Antiproliferative activity against human Z138 cells assessed as inhibition of cell growth incubated for 72 hrs by MTS assay; type: functional, cell-based; conditions: Z-138, 72 h
JeKo-1 = assay: Antiproliferative activity against human JeKo-1 cells assessed as inhibition of cell growth incubated for 72 hrs by MTS assay; type: functional, cell-based; conditions: JeKo-1, 72 h
[12] = Antiproliferative activity against human MINO cells assessed as inhibition of cell growth incubated for 72 hrs by MTS assay; type: functional, cell-based
[13] = molecular target: Receptor-type tyrosine-protein kinase FLT3 (Homo sapiens) (UniProt P36888); assay: Inhibition of FLT3 in human MV4-11 cells assessed as reduction in AKT phosphorylation by Western blotting analysis; type: cell-based; conditions: dose 10-1000 nM
[14] = molecular target: Receptor-type tyrosine-protein kinase FLT3 (Homo sapiens) (UniProt P36888); assay: Inhibition of FLT3 in human MV4-11 cells assessed as reduction in STAT5 phosphorylation by Western blotting analysis; type: cell-based; conditions: dose 10-1000 nM
HL-60 = assay: Antiproliferative activity against human HL-60 cells assessed as inhibition of cell growth incubated for 72 hrs by MTS assay; type: functional, cell-based; conditions: HL-60, 72 h
[15] = molecular target: Receptor-type tyrosine-protein kinase FLT3 (Homo sapiens, UniProt P36888, D835Y)
Description: Inhibition of human FLT3 D835Y mutant using TK peptide as substrate incubated for 1 hr in presence of ATP by HTRF assay

[16] = molecular target: Receptor-type tyrosine-protein kinase FLT3 (Homo sapiens) (UniProt P36888); assay: Inhibition of FLT3 in human MV4-11 cells assessed as reduction in ERK phosphorylation by Western blotting analysis; type: cell-based; conditions: dose 10-1000 nM
MOLT-4 = assay: Antiproliferative activity against human MOLT-4 cells assessed as inhibition of cell growth incubated for 72 hrs by MTS assay; type: functional, cell-based; conditions: MOLT-4, 72 h
RS4-11 = assay: Antiproliferative activity against human RS4-11 cells assessed as inhibition of cell growth incubated for 72 hrs by MTS assay; type: functional, cell-based; conditions: RS4-11, 72 h

SMILES: Cc1cc(Nc2cc3c(cn2)ncc(=O)n3-c2ccc(N)cc2)ncc1N1CCN(C(C)C)CC1
IC50 (MV4-11): 0.015 µM | inhibition [1]: Active | IC50 (BaF3 [2]): 0.04 µM | IC50 (BaF3 [3]): 0.131 µM | IC50 (MOLM-13): 0.132 µM | inhibition [4]: 100% | IC50 (WI-38): 16.6 µM | IC50 (Rec1): 3.92 µM | IC50 (KG-1): 2.46 µM | IC50 at 72 h [5]: 3.27 µM | IC50 [6]: 0.062 µM | IC50 (BaF3 [7]): 0.026 µM | inhibition [8]: 100% | remaining at 1.5 h, 100 µM [9]: > 80% | IC50 (BaF3 [10]): 0.136 µM | IC50 (BaF3 [11]): 0.008 µM | IC50 (MM1.S): 1.58 µM | IC50 (HCC1954): 11.6 µM | IC50 (OCI-AML-3): 6.44 µM | IC50 (Z-138): 1.44 µM | IC50 (JeKo-1): 1.52 µM | IC50 [12]: 1.09 µM | inhibition [13]: Dose-Dependent Effect | inhibition [14]: Dose-Dependent Effect | IC50 (HL-60): 6.5 µM | IC50 [15]: 0.03 µM | inhibition [16]: Dose-Dependent Effect | IC50 (MOLT-4): 4.33 µM | IC50 (RS4-11): 1.4 µM

IC50 [6]: 0.288 µM | IC50 [15]: 0.12 µM
SMILES: Cc1cc(Nc2cc3c(cn2)ncc(=O)n3-c2ccc(N)cc2)ncc1N1CCC(F)(F)CC1

SMILES: Cc1cc(Nc2cc3c(cn2)ncc(=O)n3-c2ccc(N)cc2)ncc1N1CCSCC1
IC50 (MV4-11): 0.098 µM | IC50 (MOLM-13): 0.881 µM | IC50 [6]: 0.185 µM | IC50 [15]: 0.089 µM

IC50 [6]: 2.17 µM | IC50 [15]: 2.84 µM
SMILES: CN1CCN(c2ccc(Nc3cc4c(cn3)ncc(=O)n4-c3ccc(N)cc3)cc2)CC1

SMILES: Cc1cc(Nc2cc3c(cn2)ncc(=O)n3-c2ccc(N)cc2)ncc1N1C[C@@H](C)N[C@@H](C)C1
IC50 (MV4-11): 0.024 µM | IC50 (BaF3 [2]): 0.257 µM | IC50 (BaF3 [3]): 0.689 µM | IC50 (MOLM-13): 0.191 µM | IC50 [6]: 0.085 µM | IC50 (BaF3 [7]): 0.169 µM | IC50 (BaF3 [10]): 0.681 µM | IC50 (BaF3 [11]): 0.07 µM | IC50 [15]: 0.033 µM

IC50 [6]: 0.747 µM | IC50 [15]: 0.633 µM
SMILES: CN1CCN(c2ccc(Nc3cc4c(cn3)ncc(=O)n4-c3ccc(N(C)C)cc3)nc2)CC1

IC50 [6]: 0.856 µM | IC50 [15]: 0.685 µM
SMILES: CN1CCN(c2ccc(Nc3cc4c(cn3)ncc(=O)n4-c3ccc(NS(C)(=O)=O)cc3)nc2)CC1

SMILES: Cc1cc(Nc2cc3c(cn2)ncc(=O)n3-c2ccc(N)cc2)ncc1N1CCN(S(C)(=O)=O)CC1
IC50 (MV4-11): 0.068 µM | IC50 (MOLM-13): 0.692 µM | IC50 [6]: 0.122 µM | IC50 [15]: 0.089 µM

IC50 [6]: 3.83 µM | IC50 [15]: 6.61 µM
SMILES: CN1CCN(c2ccc(Nc3ccc4ncc(=O)n(-c5ccc(N)cc5)c4n3)cc2)CC1

IC50 [6]: 0.915 µM | IC50 [15]: 0.73 µM
SMILES: CN1CCN(c2ccc(Nc3cc4c(cn3)ncc(=O)n4-c3cccc(N)c3)nc2)CC1

IC50 [6]: 0.44 µM | IC50 [15]: 0.343 µM
SMILES: Cc1cc(Nc2cc3c(cn2)ncc(=O)n3-c2ccc(N)cc2)ncc1NC1CCN(C)CC1

SMILES: Cc1cc(Nc2cc3c(cn2)ncc(=O)n3-c2ccc(N)cc2)ncc1N1CCC(N)CC1
IC50 (MV4-11): 0.052 µM | IC50 (MOLM-13): 0.651 µM | IC50 [6]: 0.072 µM | IC50 [15]: 0.042 µM
